Experimental data: article PMC8772704, “Quantification of Fosfomycin in Combination with Nine Antibiotics in Human Plasma and Cation-Adjusted Mueller-Hinton II Broth via LCMS” (Antibiotics, 2022)

Assays:
[1] = 32-day stability of stock solutions stored at −80 °C; assay type: physicochemical; conditions: stock solution stored at -80 °C; peak area Day 32 vs Day 1
Experimental: Stability of stock solutions
All stock solutions of antibiotics and their corresponding stable-isotope variants were measured prior to cold storage at -80 °C and tested at 32 days later.
Stability was determined by comparing the peak area of each drug between its Day 1 and Day 32 measurement. Acceptable criteria for stability was met if the […]

[2] = Autosampler stability at 4 °C of extracted antibiotic-spiked plasma/CAMHB samples; conditions: for Mean accuracy (%), Table S8 / Mean accuracy (%), Table S10: CAMHB extracted samples; for Mean accuracy (%), Table S8 / Mean accuracy (%), Table S7: 7 h autosampler 4 °C; for Mean accuracy (%), Table S10 / Mean accuracy (%), Table S9: 15 h autosampler 4 °C; for Mean accuracy (%), Table S7 / Mean accuracy (%), Table S9: plasma extracted samples
Experimental: (§1) The stability of fosfomycin in combination with other antibiotics in plasma/CAMHB was evaluated under various operational conditions. Spiked plasma/CAMHB samples were evaluated at 7 h and 15 h in the autosampler at 4 °C. Long-term stability was evaluated up to 4 weeks of antibiotic-spiked plasma/CAMHB samples at LQC, MQC, and HQC concentrations stored at −30 °C and −80 °C.

[3] = Long-term storage stability of antibiotics in combination with fosfomycin spiked in plasma/CAMHB (−30 °C, −80 °C); assay type: physicochemical; conditions: for Stability verdict (within ±15% of nominal): CAMHB samples stored at −30 °C, 4 weeks; for Mean accuracy (%), Table S15 / Mean accuracy (%), Table S17 / Mean accuracy (%), Table S16 / Mean accuracy (%), Table S18: CAMHB; for Mean accuracy (%), Table S15 / Mean accuracy (%), Table S17 / Mean accuracy (%), Table S16 / Mean accuracy (%), Table S18 / Mean accuracy (%), Table S11 / Mean accuracy (%), Table S13 / Mean accuracy (%), Table S12 / Mean accuracy (%), Table S14: combination with fosfomycin; for Mean accuracy (%), Table S15 / Mean accuracy (%), Table S11: 2 weeks at -30 °C; for Mean accuracy (%), Table S17 / Mean accuracy (%), Table S13: 2 weeks at -80 °C; for Mean accuracy (%), Table S16 / Mean accuracy (%), Table S12: 4 weeks at -30 °C; for Mean accuracy (%), Table S18 / Mean accuracy (%), Table S14: 4 weeks at -80 °C
Experimental: as §1

[4] = HQC: nominal mg/L CAZ 150, FEP 200, PIP 250, ATM 300, MEM 200, DOR 175, LVX 30, CEFT 250, TZB 87.5, TGC 20, AVI 30, FOF 1000
[5] = LQC: nominal 1 mg/L (levofloxacin, avibactam 0.5; fosfomycin 10)
[6] = MQC: nominal mg/L CAZ 75, FEP 100, PIP 150, ATM 150, MEM 100, DOR 87.5, LVX 15, CEFT 125, TZB 43.75, TGC 10, AVI 15, FOF 500

SMILES | 32 Day Stability (%) [1] [%] | Mean accuracy (%), Table S8 ([2]; HQC (nominal as E15)) [%] | Mean accuracy (%), Table S8 ([2]; LQC (nominal as E13)) [%] | Mean accuracy (%), Table S8 ([2]; MQC (nominal as E14)) [%] | Mean accuracy (%), Table S10 ([2]; HQC (nominal as E15)) [%] | Mean accuracy (%), Table S10 ([2]; LQC (nominal as E13)) [%] | Mean accuracy (%), Table S10 ([2]; MQC (nominal as E14)) [%] | Mean accuracy (%), Table S7 [2, 4] [%] | Mean accuracy (%), Table S7 [2, 5] [%] | Mean accuracy (%), Table S7 [2, 6] [%] | Mean accuracy (%), Table S9 ([2]; HQC (nominal as E15)) [%] | Mean accuracy (%), Table S9 ([2]; LQC (nominal as E13)) [%] | Mean accuracy (%), Table S9 ([2]; MQC (nominal as E14)) [%] | Mean accuracy (%), Table S15 ([3]; HQC (nominal as E15)) [%] | Mean accuracy (%), Table S15 ([3]; LQC (nominal as E13)) [%] | Mean accuracy (%), Table S15 ([3]; MQC (nominal as E14)) [%] | Mean accuracy (%), Table S17 ([3]; HQC (nominal as E15)) [%] | Mean accuracy (%), Table S17 ([3]; LQC (nominal as E13)) [%] | Mean accuracy (%), Table S17 ([3]; MQC (nominal as E14)) [%] | Mean accuracy (%), Table S16 ([3]; HQC (nominal as E15)) [%] | further results
C[C@H]1COc2c(N3CCN(C)CC3)c(F)cc3c(=O)c(C(=O)O)cn1c23 [Levofloxacin, levofloxacin] | 98.42 | 98.8 | 113.0 | 103.4 | 99.5 | 112.8 | 103.9 | 101.3 | 110.7 | 105.2 | 103.6 | 114.0 | 106.1 | – | – | – | – | – | – | – | –
CCN1CCN(C(=O)N[C@@H](C(=O)N[C@@H]2C(=O)N3[C@@H]2SC(C)(C)[C@@H]3C(=O)O)c2ccccc2)C(=O)C1=O [Piperacillin, piperacillin] | 100.48 | 89.6 | 113.7 | 86.7 | 90.6 | 112.7 | 87.6 | 87.5 | 109.5 | 84.0 | 89.6 | 109.9 | 86.8 | 89.0 | 106.0 | 89.5 | 89.6 | 111.6 | 92.6 | 69.6 | Stability verdict (within ±15% of nominal) [3]: instability; Mean accuracy (%), Table S16 ([3]; LQC (nominal as E13)): 90.6%; Mean accuracy (%), Table S16 ([3]; MQC (nominal as E14)): 67.5%; Mean accuracy (%), Table S18 ([3]; HQC (nominal as E15)): 87.6%; Mean accuracy (%), Table S18 ([3]; LQC (nominal as E13)): 109.4%; Mean accuracy (%), Table S18 ([3]; MQC (nominal as E14)): 90.6%; Stability data ([3]; plasma, 2-week and 4-week intervals): 86–88%; Mean accuracy (%), Table S11 ([3]; plasma, HQC (nominal as E15)): 88.5%; Mean accuracy (%), Table S11 ([3]; plasma, LQC (nominal as E13)): 112.6%; Mean accuracy (%), Table S11 ([3]; plasma, MQC (nominal as E14)): 92.7%; Mean accuracy (%), Table S13 ([3]; plasma, HQC (nominal as E15)): 88.6%; Mean accuracy (%), Table S13 ([3]; plasma, LQC (nominal as E13)): 109.5%; Mean accuracy (%), Table S13 ([3]; plasma, MQC (nominal as E14)): 93.0%; Mean accuracy (%), Table S12 ([3]; plasma, LQC (nominal as E13)): 106.0%; Mean accuracy (%), Table S14 ([3]; plasma, LQC (nominal as E13)): 111.6%
CC(C)(O/N=C(\C(=O)N[C@@H]1C(=O)N2C(C(=O)[O-])=C(C[n+]3ccccc3)CS[C@H]12)c1csc(N)n1)C(=O)O [Ceftazidime, ceftazidime] | 101.73 | 109.2 | 110.0 | 109.0 | 112.0 | 107.7 | 111.0 | 109.6 | 94.9 | 112.0 | 113.1 | 93.8 | 111.5 | 97.6 | 99.2 | 106.0 | 103.0 | 104.3 | 105.2 | 100.5 | Mean accuracy (%), Table S16 ([3]; LQC (nominal as E13)): 105.0%; Mean accuracy (%), Table S16 ([3]; MQC (nominal as E14)): 100.4%; Mean accuracy (%), Table S18 ([3]; HQC (nominal as E15)): 103.8%; Mean accuracy (%), Table S18 ([3]; LQC (nominal as E13)): 103.5%; Mean accuracy (%), Table S18 ([3]; MQC (nominal as E14)): 106.4%; Mean accuracy (%), Table S11 ([3]; plasma, HQC (nominal as E15)): 99.5%; Mean accuracy (%), Table S11 ([3]; plasma, LQC (nominal as E13)): 97.8%; Mean accuracy (%), Table S11 ([3]; plasma, MQC (nominal as E14)): 105.0%; Mean accuracy (%), Table S13 ([3]; plasma, HQC (nominal as E15)): 99.4%; Mean accuracy (%), Table S13 ([3]; plasma, LQC (nominal as E13)): 102.6%; Mean accuracy (%), Table S13 ([3]; plasma, MQC (nominal as E14)): 101.0%; Mean accuracy (%), Table S12 ([3]; plasma, HQC (nominal as E15)): 100.3%; Mean accuracy (%), Table S12 ([3]; plasma, LQC (nominal as E13)): 100.3%; Mean accuracy (%), Table S12 ([3]; plasma, MQC (nominal as E14)): 105.0%; Mean accuracy (%), Table S14 ([3]; plasma, HQC (nominal as E15)): 107.7%; Mean accuracy (%), Table S14 ([3]; plasma, LQC (nominal as E13)): 98.8%; Mean accuracy (%), Table S14 ([3]; plasma, MQC (nominal as E14)): 103.0%
CN(C)c1cc(NC(=O)CNC(C)(C)C)c(O)c2c1C[C@H]1C[C@H]3[C@H](N(C)C)C(O)=C(C(N)=O)C(=O)[C@@]3(O)C(O)=C1C2=O [Tigecycline, tigecycline] | 102.57 | 103.5 | 100.6 | 103.1 | 103.2 | 101.8 | 100.2 | 110.0 | 106.7 | 112.7 | 111.0 | 105.1 | 106.3 | 87.2 | 98.8 | 87.3 | 102.3 | 98.9 | 106.1 | 91.2 | Mean accuracy (%), Table S16 ([3]; LQC (nominal as E13)): 87.0%; Mean accuracy (%), Table S16 ([3]; MQC (nominal as E14)): 100.6%; Mean accuracy (%), Table S18 ([3]; HQC (nominal as E15)): 91.0%; Mean accuracy (%), Table S18 ([3]; LQC (nominal as E13)): 87.6%; Mean accuracy (%), Table S18 ([3]; MQC (nominal as E14)): 95.3%; Mean accuracy (%), Table S11 ([3]; plasma, HQC (nominal as E15)): 102.5%; Mean accuracy (%), Table S11 ([3]; plasma, LQC (nominal as E13)): 111.9%; Mean accuracy (%), Table S11 ([3]; plasma, MQC (nominal as E14)): 98.9%; Mean accuracy (%), Table S13 ([3]; plasma, HQC (nominal as E15)): 107.8%; Mean accuracy (%), Table S13 ([3]; plasma, LQC (nominal as E13)): 109.8%; Mean accuracy (%), Table S13 ([3]; plasma, MQC (nominal as E14)): 100.1%; Mean accuracy (%), Table S12 ([3]; plasma, HQC (nominal as E15)): 110.7%; Mean accuracy (%), Table S12 ([3]; plasma, LQC (nominal as E13)): 97.8%; Mean accuracy (%), Table S12 ([3]; plasma, MQC (nominal as E14)): 102.8%; Mean accuracy (%), Table S14 ([3]; plasma, HQC (nominal as E15)): 112.3%; Mean accuracy (%), Table S14 ([3]; plasma, LQC (nominal as E13)): 96.9%; Mean accuracy (%), Table S14 ([3]; plasma, MQC (nominal as E14)): 105.0%
NC(=O)[C@@H]1CC[C@@H]2CN1C(=O)N2OS(=O)(=O)O [Avibactam, avibactam] | 102.63 | 106.4 | 108.8 | 104.2 | 107.5 | 108.3 | 104.9 | 96.2 | 105.4 | 100.7 | 95.6 | 103.4 | 99.3 | 90.4 | 93.7 | 89.1 | 95.3 | 101.2 | 95.4 | 80.6 | Stability verdict (within ±15% of nominal) [3]: instability; Mean accuracy (%), Table S16 ([3]; LQC (nominal as E13)): 82.3%; Mean accuracy (%), Table S16 ([3]; MQC (nominal as E14)): 80.6%; Mean accuracy (%), Table S18 ([3]; HQC (nominal as E15)): 98.6%; Mean accuracy (%), Table S18 ([3]; LQC (nominal as E13)): 103.0%; Mean accuracy (%), Table S18 ([3]; MQC (nominal as E14)): 98.2%; Mean accuracy (%), Table S11 ([3]; plasma, HQC (nominal as E15)): 93.9%; Mean accuracy (%), Table S11 ([3]; plasma, LQC (nominal as E13)): 100.6%; Mean accuracy (%), Table S11 ([3]; plasma, MQC (nominal as E14)): 99.4%; Mean accuracy (%), Table S13 ([3]; plasma, HQC (nominal as E15)): 95.2%; Mean accuracy (%), Table S13 ([3]; plasma, LQC (nominal as E13)): 105.1%; Mean accuracy (%), Table S13 ([3]; plasma, MQC (nominal as E14)): 100.4%; Mean accuracy (%), Table S12 ([3]; plasma, HQC (nominal as E15)): 87.3%; Mean accuracy (%), Table S12 ([3]; plasma, LQC (nominal as E13)): 100.2%; Mean accuracy (%), Table S12 ([3]; plasma, MQC (nominal as E14)): 92.6%; Mean accuracy (%), Table S14 ([3]; plasma, HQC (nominal as E15)): 92.9%; Mean accuracy (%), Table S14 ([3]; plasma, LQC (nominal as E13)): 101.0%; Mean accuracy (%), Table S14 ([3]; plasma, MQC (nominal as E14)): 94.5%
